Patent US20130018020A1, “INHIBITOR FOR MELANIN, AND COSMETIC COMPOSITION CONTAINING SAME” (AMOREPACIFIC CORPORATION, priority 2010, published 2013)

System: Human melanoma HM3KO cells
Experiment: Effect on inhibition of melanin production
Format: cell-based
Conditions: 10 ppm of each test material, absorbance at 500 nm vs DMSO control
Description: Human melanoma HM3KO cells (Y. Funasaka, Department of dermatology, Kobe university school of medicine, 5-1 Kusunoki-cho 7-chrome, Chuo-ku, Kobe 650, Japan) were cultured in 10% FBS-containing MEM (Minimum Essential Medium) under the conditions of 37° C. and 5% CO2. The cultured cells were plated on T75 flasks at a density of 3×10^5 cells per flask and allowed to stand overnight until the cells adhered to the flask wall. After the cells were confirmed to adhere to the flask wall, the medium was replaced with a fresh medium containing 10 ppm of each of the test materials shown in Table 1 below. In a control group, a DMSO-containing medium was used. In this manner, the medium was replaced with a fresh medium containing each test material once at intervals of 2-3 days, while the cells were cultured until the flask was filled with the cells. When the cells completely grew, the cells were collected, and the color thereof was compared between the control group and each of the groups treated with the test material. In addition, after the culture medium has been removed and the cells were washed with PBS, the cells were dissolved in 1N sodium hydroxide, and the absorbance at 500 nm was measured. Based on the measurements, the inhibition (%) of melanin production was calculated using the following equation 1, and the results of the calculation are shown in Table 1 below. Inhibition (%) of melanin production=[…] [Equation 1]

Row | Compound | inhibition at 10 ppm [%]
1 | NC(=O)c1cccnc1 [Nicotinic acid amide] | 29.5
2 | NC[C@H]1CC[C@H](C(=O)O)CC1 [Tranexamic acid] | 32.2
3 | O=c1cc(CO)occ1O [Kojic acid] | 28.3
